Test results as given in PMC5096464 (Journal of the American Chemical Society, 2016).
Changes are numbered by the printed parent chain.

Legend:
[1] = target: T1, WT PafA (Elizabethkingia meningoseptica, UniProt Q9KJX5); test: biochemical; conditions: pH 8.0, subsaturating me-pNPP
T1 sequence (Q9KJX5 26-546): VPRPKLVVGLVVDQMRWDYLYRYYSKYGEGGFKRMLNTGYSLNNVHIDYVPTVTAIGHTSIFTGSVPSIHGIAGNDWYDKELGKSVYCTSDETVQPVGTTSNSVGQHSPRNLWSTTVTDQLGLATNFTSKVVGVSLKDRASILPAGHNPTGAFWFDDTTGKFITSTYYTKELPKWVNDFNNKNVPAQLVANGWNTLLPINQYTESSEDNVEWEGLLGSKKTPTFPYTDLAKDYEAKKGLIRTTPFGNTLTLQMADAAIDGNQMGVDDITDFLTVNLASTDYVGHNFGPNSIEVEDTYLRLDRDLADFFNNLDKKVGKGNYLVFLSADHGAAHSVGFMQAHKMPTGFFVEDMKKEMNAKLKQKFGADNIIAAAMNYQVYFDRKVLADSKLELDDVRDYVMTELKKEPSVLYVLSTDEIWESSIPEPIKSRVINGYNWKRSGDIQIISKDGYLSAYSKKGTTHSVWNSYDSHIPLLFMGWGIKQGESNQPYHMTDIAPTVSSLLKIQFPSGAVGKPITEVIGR

[2] = target: T2, N100A PafA (Elizabethkingia meningoseptica, UniProt Q9KJX5, N100A); test: biochemical; conditions: pH 8.0, subsaturating me-pNPP
T2 sequence (Q9KJX5 26-546 N100A): T1 sequence (Q9KJX5 26-546) with N75A

[3] = tested on: EcAP; conditions: EcAP vs PafA
[4] = target: T3, T79S PafA (Elizabethkingia meningoseptica, UniProt Q9KJX5, T79S); test: biochemical; conditions: pH 8.0, subsaturating me-pNPP
T3 sequence (Q9KJX5 26-546 T79S): T1 sequence (Q9KJX5 26-546) with T54S

[5] = target: EcAP; conditions: ref 39 and 57; cited from earlier work
[6] = target: T4, R164A PafA (Elizabethkingia meningoseptica, UniProt Q9KJX5, R164A); test: biochemical; conditions: pH 8.0, subsaturating me-pNPP
T4 sequence (Q9KJX5 26-546 R164A): T1 sequence (Q9KJX5 26-546) with R139A

[7] = target: T5, K162A PafA (Elizabethkingia meningoseptica, UniProt Q9KJX5, K162A); test: biochemical; conditions: pH 8.0, subsaturating me-pNPP
T5 sequence (Q9KJX5 26-546 K162A): T1 sequence (Q9KJX5 26-546) with K137A

| Structure (SMILES) | Ki [1] [µM] | Ki [2] [µM] | product inhibition of EcAP stronger than that for PafA [3] | Ki [4] [µM] | Ki (product inhibition) [5] | Ki [6] [µM] | Ki [7] [µM] |
| --- | --- | --- | --- | --- | --- | --- | --- |
| O=P(O)(O)O [Pi, inorganic phosphate] | 830 | 1300 | more than 3 orders of magnitude | 9.6 | low micromolar | > 13000 | 4700 |
| [O]=[W](=[O])([OH])[OH] [tungstate] | 3.9 | 570 |  | 280 |  | 1300 | > 13000 |
| [O]=[V]([OH])([OH])[OH] [vanadate] | 0.67 | 190 |  | 90 |  | 300 | 79 |
